Results published in US8163795B2, “Chroman derivatives, medicaments and use in therapy” (Marshall Edwards, Inc., priority 2004, dated 2012).

Legend:
[1] = test system: SKOV-3 ovarian cancer cell line; assay: Proliferation assay (MTT); format: cell-based; conditions: Table 2.1; Ovarian SKOV-3; read-out: IC50
MM200 melanoma cell line [2] = assay: HMC combination with cisplatin (synergy); format: cell-based; conditions: Table 8, single agent
Protocol: (§1) IC50 values were determined for each cell line. Cells were seeded in 96-well plates at an appropriate cell density as determined from growth kinetics analysis and cultured for 5 days in the absence and presence of the test compounds. Cell proliferation was assessed after the addition of 20 μl of 3-4,5 dimethylthiazol-2,5-diphenyl tetrazolium bromide (MTT, 2.5 mg/ml in PBS, Sigma) for 3-4 hrs at 37° C. according to manufacturer's instructions. IC50 values were calculated from semi-log plots of % of control proliferation on the y-axis against log dose on the x-axis.
3-D model analysis of the cytotoxic interaction between drug A and drug B enables the representation of predicted inhibitory effect of two drugs in combination in 3 dimensions to reveal actual regions of synergy or antagonism. The 3D synergy plots are based on a theory of “Theretical Additivity” (TA) as outlined by Kanzawa et al (Int. J. Cancer 71, 311-319 (1997)). Theoretical Additivity was calculated from the cytotoxicities of drug A and drug B as monotherapies using the following formula which assumes the drugs are mutually exclusive inhibitors: […]
The TA is calculated for each combination of drug concentrations and subtracted from the observed experimental effect for each combination to give a measurement of synergisitic action.
HMC synergy with cisplatin was assessed either in combination over 5 days exposure or in sequence (HMC→cisplatin) against the MM200 melanoma cell line. It was difficult to assess for synergisitic toxicity using a change in IC50 as a measure of synergy due to HMC toxicity as monotherapy (Table 8). […] Evidence of synergy using the HMC-cisplatin combination was further assessed using the HMC→cisplatin sequence (24 hr exposure to each compound in sequence) against the melanoma cell line MM200. Using change in IC50 to assess for synergy it was noted that HMC at concentrations of 2 μM markedly chemosensitised the MM200 cells to cisplatin by >1000 fold (Table 8). HMC induced chemosensitisation of MM200 cells to cisplatin was confirmed using 3D analysis of the data (FIG. 11B).

DU145 (Prostate) = assay: Proliferation assay (MTT); format: cell-based; conditions: Table 2.1
Protocol: (§2) All cultures were supplemented with 10% FCS (fetal calf serum CSL, Australia), penicillin (100 U/ml), streptomycin ([…]), L-glutamine (2 mM) and sodium bicarbonate (1.2 g/L), and cultured at 37° C. in a humidified atmosphere of 5% CO2. All cell lines were purchased from ATCC (Maryland, USA) except where noted.
as §1

HTB-138 (Glioma) = assay: Proliferation assay (MTT); format: cell-based; conditions: Table 2.1; Glioma HTB-138
Protocol: as §2, §1

HT-29 (Colorectal) = assay: Proliferation assay (MTT); format: cell-based; conditions: Table 2.1; Colorectal HT-29
Protocol: as §2, §1

[3] = test system: MCF-7 breast cancer cell line; assay: Proliferation assay (MTT); format: cell-based; conditions: Table 2.1; Breast MCF-7
Protocol: as §2, §1

A2780 (Ovarian) = assay: Proliferation assay (MTT); format: cell-based; conditions: Table 2.1
Protocol: as §2, §1

LNCaP (Prostate) = assay: Proliferation assay (MTT); format: cell-based; conditions: Table 2.1
Protocol: as §2, §1

NCI-H460 (Lung) = assay: Proliferation assay (MTT); format: cell-based; conditions: Table 2.1; Lung NCI-H460
Protocol: as §2, §1

HCT-15 (Colorectal) = assay: Proliferation assay (MTT); format: cell-based; conditions: Table 2.1; Colorectal HCT-15
Protocol: as §2, §1

[4] = test system: PC3 prostate cancer cell line; assay: Proliferation assay (MTT); format: cell-based; conditions: Table 2.1
Protocol: as §2, §1

[5] = test system: HPAC (CRL-2119) pancreatic cancer cell line; assay: Proliferation assay (MTT); format: cell-based, human; conditions: Table 2.1; Pancreatic CRL-2119; read-out: IC50
A2058 melanoma cell line = assay: Proliferation assay (MTT); format: cell-based; conditions: Table 2.1; Melanoma A2058
[6] = test system: CP70 ovarian cancer cell line; assay: Proliferation assay (MTT); format: cell-based; conditions: Table 2.1; Ovarian CP70; read-out: IC50
[7] = test system: MDA-MB-468 breast cancer cell line; assay: Proliferation assay (MTT); format: cell-based; conditions: Table 2.1; Breast MDA-MB-468; read-out: IC50
[8] = test system: Neonatal foreskin fibroblasts (NFF); assay: Proliferation assay (MTT), normal cell toxicity; format: cell-based, Human; conditions: Table 1; Neonatal Foreskin Fibroblasts (Human, NFF); read-out: IC50
Protocol: The normal cell line NFF (neonatal foreskin fibroblasts) was a sift from Dr. Peter Parsons (Queensland Institute of Medical Research). RK (rabbit kidney) cells were obtained from Miller Whalley (Macquarie University). Both cell lines were cultured in RPMI supplemented with 10% FCS(CSL, Australia), penicillin (100 U/ml), streptomycin ([…]), L-glutamine (2 mM) and sodium bicarbonate (1.2 g/L), and cultured at 37° C. in a humidified atmosphere of 5% CO2.
as §1

MM200 melanoma cell line [9] = assay: Proliferation assay (MTT); format: cell-based; conditions: Table 2.1; Melanoma MM200; read-out: IC50

For `N.N.[Cl][Pt][Cl]` [Cisplatin, cisplatin, reference compound], the IC50 [1] was 5.4 µM, the IC50 (MM200 melanoma cell line [2]; 24 hr exposure, read-out: IC50, 24 hr (monotherapy)) was 6.32 µM and the IC50 (MM200 melanoma cell line [2]; 5 days exposure, read-out: IC50, Combined (monotherapy)) was 8.82 µM. For the same molecule, the IC50 (DU145 (Prostate)) was 2.07 µM, the IC50 (HTB-138 (Glioma)) was 42.3 µM and the IC50 (HT-29 (Colorectal)) was 22.7 ± 35 µM. For the same molecule, the IC50 [3] was 3.69 µM, the IC50 (A2780 (Ovarian)) was 2.1 µM and the IC50 (LNCaP (Prostate)) was > 10 µM. For the same molecule, the IC50 (NCI-H460 (Lung)) was 22.3 µM, the IC50 (HCT-15 (Colorectal)) was 130 ± 39 µM and the IC50 [4] was 2.11 µM. For the same molecule, the IC50 [5] was 9.36 µM, the IC50 (A2058 melanoma cell line) was 5.73 ± 2.3 µM and the IC50 [6] was 10.3 µM. The IC50 [7] was 0.58 µM, the IC50 [8] was 9.85 ± 5 µM and the IC50 (MM200 melanoma cell line [9]) was 8.3 ± 0.7 µM.
